Counter-ions that a name gives are not always drawn. Like-named read-outs stand apart in the source and are kept apart here.
Key:
Format in all cases: biochemical
human CSNK1A1 [1] = biological target: T1, human CSNK1A1 (Homo sapiens (Human), UniProt P48729); assay: CSNK1A1 Assay 1 (ADP-Glo, 1 μM ATP); conditions: substrate Btn-Ahx-SGSEGDSESGEEEG, read-out: CSNK1A1 Assay 1 IC50 [mol/l] (median)
Method: CSNK1A1-inhibitory activity of compounds of the present invention in presence of 1 μM adenosine-tri-phosphate (ATP) was quantified employing the CSNK1A1 assay as described in the following paragraphs. In essence, the enzyme activity is measured by quantification of the adenosine-di-phosphate (ADP), which is generated as a co-product of the enzyme reaction, via the “ADP-Glo™ Kinase Assay” kit from the company Promega. This detection system works as follows: In a first step the ATP not consumed in the kinase reaction is quantitatively converted to cAMP employing an adenylate cyclase (“ADP-Glo-reagent”), then the adenylate cyclase is stopped and the ADP generated in the kinase reaction converted to ATP which generates in a luciferase-based reaction a glow-luminescence signal (“Kinase Detection Reagent”). Recombinant fusion protein of N-terminal Glutathion-S-Transferase (GST) and full-length human CSNK1A1, expressed by baculovirus infected insect cells and purified via Glutathion affinity chromatography, was purchased from Life Technologies (product no. PV4174) and used as enzyme. As substrate for the kinase reaction the biotinylated peptide Btn-Ahx-[…] (C-terminus in amide form) was used which can be purchased e.g. from the company Biosyntan (Berlin-Buch, Germany).
For the assay 50 nl of a 100 fold concentrated solution of the test compound in DMSO was pipetted into a white 1536-well microtiter plate (Greiner Bio-One, Frickenhausen, Germany), 2 μL of a solution of CSNK1A1 in aqueous assay buffer [50 mM HEPES pH 7.5, 10% (v/v) glycerol, 10 mM MgCl2, 50 mM NaCl, 1 mM dithiothreitol, 0.01% (w/v) bovine serum albumin, 0.01% (v/v) Triton X-100] were added and the mixture was incubated for 15 min at 22° C. to allow pre-binding of the test compounds to the enzyme before the start of the kinase reaction. […] The concentration of CSNK1A1 was adjusted depending of the activity of the enzyme lot and was chosen appropriate to have the assay in the linear range, a typical concentration is 0.15 ng/μL. The reaction was stopped by the addition of 2.5 μL of “ADP-Glo-reagent” (1:1.5 fold diluted with water) and the resulting mixture was incubated at 22° C. for 1 h to convert the ATP not consumed in the kinase reaction completely […]. Subsequently 2.5 μL of the “kinase detection reagent” (1.2 fold more concentrated than recommended by the producer) were added, the resulting mixture was incubated at 22° C. for 1 h and then the luminescence measured with a suitable measurement instrument (e.g. Viewlux™ from Perkin-Elmer). The amount of emitted light was taken as a measure for the amount of ADP generated and thereby for the activity of the CSNK1A1.

human CSNK1A1 [2] = biological target: T1, human CSNK1A1; assay: CSNK1A1 High ATP Assay (ADP-Glo, 1 mM ATP); conditions: read-out: CSNK1A1 high ATP assay IC50 [mol/l] (median)
Method in brief: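 Kinase activity taken as ADP generated, quantified by ADP-Glo luminescence after 1 h ATP depletion and 1 h detection at 22 °C. Enzyme is GST–full-length human CSNK1A1 (insect cell-expressed), pre-bound to compound for 15 min, with phosphopeptide substrate and 1 mM ATP.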

human CSNK1D = human CSNK1D (Homo sapiens (Human), UniProt P48730); assay: CSNK1D Assay (ADP-Glo, 1 μM ATP); conditions: read-out: CSNK1D IC50 [mol/l] (median)
Method in brief: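 Activity is read as ADP produced, by ADP-Glo luminescence after 1 h steps at 22 °C. The reaction uses 1 μM ATP, a biotinylated peptide and insect-cell-expressed GST–CSNK1D (about 0.5 ng/μL) in pH 7.5 HEPES buffer, with 15 min compound–enzyme preincubation.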

[3] = biological target: wild-type Epidermal Growth Factor Receptor (EGFR) (Homo sapiens (Human), UniProt P00533); assay: WT-EGFR Kinase Assay (TR-FRET, 2 mM ATP)
human CSNK1A1 [4] = biological target: T1, human CSNK1A1; assay: CSNK1A1 Assay 2 (ADP-Glo, 1 μM ATP); conditions: substrate biotin-Ahx-KRRRAL-pS-VASLPGL, read-out: CSNK1A1 Assay 2 IC50 [mol/l] (median)
Method in brief: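 Full-length human CSNK1A1 as an N-terminal GST fusion (baculovirus/insect cells) with biotinylated peptide substrate biotin-Ahx-KRRRAL-pS-VASLPGL and 1 μM ATP, in HEPES pH 7.5 buffer. Compounds were pre-incubated with enzyme (~0.0375 ng/μL) for 15 min at 22 °C. Generated ADP was read by ADP-Glo luminescence as the activity measure.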

[5] = read-out: EGFR Wildtyp- 2 mM ATP IC50 [mol/l] (median)

Chain of wild-type Epidermal Growth Factor Receptor (EGFR) (P00533 669-1210): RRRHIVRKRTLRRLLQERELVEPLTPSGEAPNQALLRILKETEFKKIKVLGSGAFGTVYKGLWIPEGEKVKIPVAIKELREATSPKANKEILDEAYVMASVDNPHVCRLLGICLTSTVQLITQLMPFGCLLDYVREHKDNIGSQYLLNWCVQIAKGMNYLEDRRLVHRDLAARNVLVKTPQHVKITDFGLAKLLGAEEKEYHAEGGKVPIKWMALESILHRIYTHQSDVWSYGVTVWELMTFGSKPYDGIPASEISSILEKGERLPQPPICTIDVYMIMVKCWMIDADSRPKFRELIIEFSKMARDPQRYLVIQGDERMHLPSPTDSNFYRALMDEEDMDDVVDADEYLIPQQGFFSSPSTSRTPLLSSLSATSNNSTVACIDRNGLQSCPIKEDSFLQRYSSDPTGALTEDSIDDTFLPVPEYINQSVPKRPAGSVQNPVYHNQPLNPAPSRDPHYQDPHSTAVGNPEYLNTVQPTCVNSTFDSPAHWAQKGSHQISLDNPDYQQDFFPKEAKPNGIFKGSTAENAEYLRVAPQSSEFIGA
T1 sequence (P48729 whole entry): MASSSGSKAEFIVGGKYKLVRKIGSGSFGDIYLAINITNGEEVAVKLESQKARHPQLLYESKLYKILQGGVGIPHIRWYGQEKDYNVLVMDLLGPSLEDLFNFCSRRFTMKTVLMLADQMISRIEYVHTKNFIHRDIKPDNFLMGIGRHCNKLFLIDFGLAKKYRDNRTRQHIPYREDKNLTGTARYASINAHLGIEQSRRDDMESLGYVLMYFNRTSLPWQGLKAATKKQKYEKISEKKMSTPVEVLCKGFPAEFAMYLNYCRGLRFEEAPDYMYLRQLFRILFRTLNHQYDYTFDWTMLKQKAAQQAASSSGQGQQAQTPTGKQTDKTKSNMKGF
Chain of human CSNK1D (P48730 whole entry): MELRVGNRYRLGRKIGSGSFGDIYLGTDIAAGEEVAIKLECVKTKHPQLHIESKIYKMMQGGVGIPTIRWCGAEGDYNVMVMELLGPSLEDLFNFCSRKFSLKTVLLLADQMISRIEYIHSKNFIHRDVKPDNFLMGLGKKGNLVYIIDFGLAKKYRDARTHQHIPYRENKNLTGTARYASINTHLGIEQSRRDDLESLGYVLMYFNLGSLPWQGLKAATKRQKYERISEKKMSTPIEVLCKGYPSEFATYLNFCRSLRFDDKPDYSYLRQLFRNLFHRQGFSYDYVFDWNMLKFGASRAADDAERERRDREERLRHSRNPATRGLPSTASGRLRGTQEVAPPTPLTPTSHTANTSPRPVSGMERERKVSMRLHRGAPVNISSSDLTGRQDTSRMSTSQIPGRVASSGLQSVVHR

Structure (SMILES) | IC50 (human CSNK1A1 [1]) [nM] | IC50 (human CSNK1A1 [2]) [nM] | IC50 (human CSNK1D) [nM] | IC50 [3, 5] [nM] | IC50 (human CSNK1A1 [4]) [nM] | IC50 ([3]; EGFR Wildtyp- 2 mM ATP IC50 [mol/l] (median)) [nM]
CN1CCc2[nH]c(-c3ccnc(NC(=O)Cc4ccccc4)c3)c(Nc3ccccc3)c2C1=O [Example 2, N-[4-(3-anilino-5-methyl-4-oxo-4,5,6,7-tetrahydro-1H-pyrrolo[3,2-c]pyridin-2-yl)pyridin-2-yl]-2-phenylacetamide] | 3.95 | 114 | 5.41 | 1170 |  | 
Cc1cc(CC(=O)Nc2cc(-c3[nH]c4c(c3Nc3ccccc3)C(=O)N(C)CC4)ccn2)ccc1F [Example 3, N-[4-(3-anilino-5-methyl-4-oxo-4,5,6,7-tetrahydro-1H-pyrrolo[3,2-c]pyridin-2-yl)pyridin-2-yl]-2-(4-fluoro-3-methylphenyl)acetamide] | 4.28 | 78.4 | 5.66 | 2130 |  | 
CN1CCc2[nH]c(-c3ccnc(NC(=O)Cc4ccc(F)cc4)c3)c(Nc3ccccn3)c2C1=O [Example 12, 2-(4-fluorophenyl)-N-(4-{5-methyl-4-oxo-3-[(pyridin-2-yl)amino]-4,5,6,7-tetrahydro-1H-pyrrolo[3,2-c]pyridin-2-yl}pyridin-2-yl)acetamide] | 2.32 | 5.2 | 10.2 | > 20000 |  | 
CN1CCc2[nH]c(-c3ccnc(NC(=O)Cc4cccc(C(F)(F)F)c4)c3)c(Nc3ccccc3)c2C1=O [Example 116, N-[4-(3-anilino-5-methyl-4-oxo-4,5,6,7-tetrahydro-1H-pyrrolo[3,2-c]pyridin-2-yl)pyridin-2-yl]-2-[3-(trifluoromethyl)phenyl]acetamide] |  | 453 | 54.4 | > 20000 | 18.6 | 
COC(=O)c1ccc(CC(=O)Nc2cc(-c3[nH]c4c(c3Nc3ccccc3)C(=O)N(C)CC4)ccn2)cc1 [Example 117, methyl 4-(2-{[4-(3-anilino-5-methyl-4-oxo-4,5,6,7-tetrahydro-1H-pyrrolo[3,2-c]pyridin-2-yl)pyridin-2-yl]amino}-2-oxoethyl)benzoate] |  | 96.2 | 2.99 | 1270 | 1.46 | 
CC1(C)Cc2[nH]c(-c3ccnc(NC(=O)Cc4ccc(F)cc4)c3)c(Nc3cccc(F)c3)c2C(=O)N1 [Example 119, N-{4-[3-(3-fluoroanilino)-6,6-dimethyl-4-oxo-4,5,6,7-tetrahydro-1H-pyrrolo[3,2-c]pyridin-2-yl]pyridin-2-yl}-2-(4-fluorophenyl)acetamide] |  | 354 | 10.8 | 2540 | 5.65 | 
O=C(Cc1ccc(F)cc1)Nc1cc(-c2[nH]c3c(c2Nc2cccc(F)c2Cl)C(=O)NC2(CCC2)C3)ccn1 [Example 122, N-{4-[3′-(2-chloro-3-fluoroanilino)-4′-oxo-1′,4′,5′,7′-tetrahydrospiro[cyclobutane-1,6′-pyrrolo[3,2-c]pyridin]-2′-yl]pyridin-2-yl}-2-(4-fluorophenyl)acetamide] |  | 26.8 | 4.71 | 2150 | 4.12 | 
O=C(Cc1ccc(F)cc1)Nc1cc(-c2[nH]c3c(c2Nc2ccccc2)C(=O)NC2(CC2)C3)ccn1 [Example 146, N-[4-(3′-anilino-4′-oxo-1′,4′,5′,7′-tetrahydrospiro[cyclopropane-1,6′-pyrrolo[3,2-c]pyridin]-2′-yl)pyridin-2-yl]-2-(4-fluorophenyl)acetamide] |  | 5.04 | 6.28 | 667 | 1.38 | 
CN1CCc2[nH]c(-c3ccnc(NC(=O)Cc4ccc(F)cc4)c3)c(Nc3cc(F)ccc3F)c2C1=O [Example 150, N-{4-[3-(2,5-difluoroanilino)-5-methyl-4-oxo-4,5,6,7-tetrahydro-1H-pyrrolo[3,2-c]pyridin-2-yl]pyridin-2-yl}-2-(4-fluorophenyl)acetamide] |  | 1270 | 26.6 | 18300 | 17.9 | > 20000
COCCNC(=O)c1ccc(CC(=O)Nc2cc(-c3[nH]c4c(c3Nc3ccccc3)C(=O)N(C)CC4)ccn2)cc1 [Example 152, 4-(2-{[4-(3-anilino-5-methyl-4-oxo-4,5,6,7-tetrahydro-1H-pyrrolo[3,2-c]pyridin-2-yl)pyridin-2-yl]amino}-2-oxoethyl)-N-(2-methoxyethyl)benzamide] |  | 37 | 7.96 | 1660 | 2.45 | 
CN1CCc2[nH]c(-c3ccnc(NC(=O)Cc4ccc(C(=O)N5CCNCC5)cc4)c3)c(Nc3ccccc3)c2C1=O [Example 153, N-[4-(3-anilino-5-methyl-4-oxo-4,5,6,7-tetrahydro-1H-pyrrolo[3,2-c]pyridin-2-yl)pyridin-2-yl]-2-[4-(piperazine-1-carbonyl)phenyl]acetamide] |  | 73.9 | 9.28 | 287 | 1.96 | 
CN1CCc2[nH]c(-c3ccnc(NC(=O)Cc4ccc(F)cc4)c3)c(Nc3cccc(F)c3F)c2C1=O [Example 154, N-{4-[3-(2,3-difluoroanilino)-5-methyl-4-oxo-4,5,6,7-tetrahydro-1H-pyrrolo[3,2-c]pyridin-2-yl]pyridin-2-yl}-2-(4-fluorophenyl)acetamide formamide salt] |  | 119 | 4.45 | > 20000 | 3.33 | 
CN(C)CCNC(=O)c1ccc(CC(=O)Nc2cc(-c3[nH]c4c(c3Nc3ccccc3)C(=O)N(C)CC4)ccn2)cc1 [Example 155, 4-(2-{[4-(3-anilino-5-methyl-4-oxo-4,5,6,7-tetrahydro-1H-pyrrolo[3,2-c]pyridin-2-yl)pyridin-2-yl]amino}-2-oxoethyl)-N-[2-(dimethylamino)ethyl]benzamide] |  | 48.5 | 7.01 | 476 | 3.12 | 
CN1CCc2[nH]c(-c3ccnc(NC(=O)Cc4c(F)cc(F)cc4F)c3)c(Nc3ccccc3)c2C1=O [Example 164, N-[4-(3-anilino-5-methyl-4-oxo-4,5,6,7-tetrahydro-1H-pyrrolo[3,2-c]pyridin-2-yl)pyridin-2-yl]-2-(2,4,6-trifluorophenyl)acetamide] |  | 149 | 3.08 | 419 | 3.83 | 
